This is an account of results in US7157494B2, “Dimeric compounds and their use as anti-viral agents” (priority 2001, dated 2007).

One data set has as its system recent clinical isolates. The following applies: in vitro assays involving recent clinical isolates, Woods et al 1993; cited from earlier work.
The next data set relates to Influenza B/Harbin/7/95. In kind it is cell-based. The following applies: concentration that inhibited CPE by 50%; MDCK cells, up to 72 hours, MTT.
Data set [1] deals with A/Bayern/7/95 BVL006 (H1N1). The data set can be described thus: Plaque reduction assay (PRA) in MDCK cells. The following applies: Influenza A virus, MDCK; reduces plaque numbers by 50%; A/Bayern/7/95 (H1N1); read-out: EC50 PRA A/Bay. In kind it is cell-based, influenza A H1N1. As to the method:
(§1) Madin Darby Canine Kidney (MDCK) cells are seeded into six well tissue culture plates and grown to confluency via standard methods. Influenza viruses are diluted in a minimal volume of phosphate buffered saline supplemented with 0.2% bovine serum albumin to yield an estimated titre of 50–100 plaque forming units (pfu) per well. After adsorption to the MDCK cells for one hour at 37° C. in a 5% CO2 atmosphere the viral inocula is aspirated and replaced with viral growth media (minimal Eagle's media supplemented with BSA, trypsin and insulin/transferrin/selenium at optimal concentrations) containing sufficient agar or agarose (generally 1–2%) to cause the media to gel at room temperature and at 37° C. in a 5% CO2 atmosphere until plaques develop (generally 2–4 days). Plaques can be visualised with a suitable stain (e.g. 0.4% crystal violet in formal saline) before counting.
(In general: Plaque reduction counts the foci of infection that form in a cell layer.)

The test system of data set [2] is A/New Caledonia/20/99 BVLV008 (H1N1). The data set is described as follows: Plaque reduction assay (PRA) in MDCK cells. In kind it is cell-based, influenza A H1N1. The following applies: reduces plaque numbers by 50%, A/New Caledonia/20/99 (H1N1). As to the method: as §1
The test system of a further data set is A/WSN/33 BVLV09 (H1N1). The data set is described as follows: Plaque reduction assay (PRA) in MDCK cells. In kind it is cell-based, influenza A H1N1. The following applies: reduces plaque numbers by 50%, A/WSN/33 (H1N1). As to the method:
as §1

The subject of a further data set is B/Hong Kong/5/72 BVLV012. The data set is described as follows: Plaque reduction assay (PRA) in MDCK cells. It counts as cell-based, influenza B. The following applies: Influenza B virus, MDCK; reduces plaque numbers by 50%; B/Hong Kong/5/72; read-out: EC50 PRA B/HongK. As to the method:
as §1

For data set [3], the system named is A/Victoria/3/75 BVLV017 (H3N2). The data set is described as follows: Plaque reduction assay (PRA) in MDCK cells. In kind it is cell-based, influenza A H3N2. The following applies: Influenza A virus, MDCK; reduces plaque numbers by 50%; A/Victoria/3/75 (H3N2); read-out: EC50 PRA A/Vic. As to the method:
as §1

Data set [4] concerns A/Sydney/5/97 BVLV015 (H3N2). The data set can be described thus: Plaque reduction assay (PRA) in MDCK cells. Conditions: Influenza A virus, MDCK; reduces plaque numbers by 50%; A/Sydney/5/97 (H3N2); read-out: EC50 PRA A/Syd. In kind it is cell-based, influenza A H3N2. As to the method: as §1
The test system of data set [5] is A/Panama/2007/99 BVLV008 (H3N2). The data set can be described thus: Plaque reduction assay (PRA) in MDCK cells. It counts as cell-based, influenza A H3N2. Conditions: reduces plaque numbers by 50%, A/Panama/2007/99 (H3N2). As to the method: as §1
Data set [6] can be described thus: Rat lung retention assay (intra-tracheal dosing, compound level in lung tissue). It counts as in vivo. The following applies: rat, in vivo, 0.1 mg/kg. As to the method:
Rodents are anaesthetised and dosed with compound of interest by the intra-tracheal route at a dose volume of 0.8 ml/kg. The rodent is then held in the vertical position until full recovery is achieved. […] Any analytical method suitable for detection of this type of compound may be used. The time at which levels of compound fall below the sensitivity of the analytical techniques identified will determine the residency time of the compound in lung tissue.
Please note that all experiments included a co-dosed internal standard, namely compound 3 of International Patent Publication No. WO 02/20514, to permit comparison. The data are expressed as a ratio with respect to this compound, the structure of which is shown below.

Another data set has as its system Influenza A/Sydney/5/97. It counts as cell-based. Conditions: concentration that inhibited CPE by 50%; MDCK cells, up to 72 hours, MTT.

Values after ≈ are worked out from the molar mass of the structure shown.

In the case of `CC(=O)N[C@@H]1C(N=C(N)N)C=C(C(=O)O)O[C@H]1[C@H](O)[C@H](O)CO` (single isomer, unassigned) [Compound A, 4-guanidino-2-deoxy-2,3-dehydro-N-acetylneuraminic acid, reference compound], the EC50 is 20 to 160 nM in the data set on recent clinical isolates; 35 ng/mL (≈ 0.105 µM) in data set [1]; 0.27 ng/mL (≈ 0.000812 µM) in data set [2] (Influenza A virus, H1N1, MDCK); 56 ng/mL (≈ 0.169 µM) in the data set with A/WSN/33 BVLV09 (H1N1) (Influenza A virus, MDCK); 21 ng/mL (≈ 0.0632 µM) in the data set with B/Hong Kong/5/72 BVLV012; 5.5 ng/mL (≈ 0.0166 µM) in data set [3]. Besides, the EC50 worked out at 2.4 ng/mL (≈ 0.00722 µM) in [4] and 2.7 ng/mL (≈ 0.00812 µM) in data set [5] (Influenza A virus, H3N2, MDCK, read-out: EC50 PRA A/Pan). For the same molecule, the “ID50 B/Harbin/7/95” value with Influenza B/Harbin/7/95 was 13 ± 11 ng/mL (≈ 0.0391 µM). Also, the “EC50 PRA A/New” value in [2] is 0.23 ng/mL (≈ 0.000692 µM). In addition, the “EC50 PRA A/WSN” value with A/WSN/33 BVLV09 (H1N1) was more than 100 ng/mL. Moreover, the “EC50 PRA A/Pan” value in data set [5] stood at 3 ng/mL (≈ 0.00903 µM). In addition, the “Ratio Mean [lung] [cmpd]/PCT AU01/01128 compound 3” value was found to be 0.26 in data set [6] (48 h) and 0.08 in data set [6] (168 h). The concentration at 48 h in [6] (Mean [cmpd] ng/g) was determined as 352 ng/g; in data set [6] ([cmpd] ng/g), 421 ng/g. The molecule further registered a concentration at 168 h in data set [6] (Mean [cmpd] ng/g) of 61 ng/g. The “ID50 A/Sydney/5/97” value in the data set on Influenza A/Sydney/5/97 turned out to be 23 ± 24 ng/mL (≈ 0.0692 µM).
